Test results from ChEMBL document CHEMBL1201862, “PubChem BioAssay data set” (2004).
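Compound exposure: 48 hours, 5 concentrations, 96-well plates. GI50 marks 50% less growth.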 Activity calls are given as the source filed them. No stated cut-off is given here; in the data, active = GI50 up to about 1.1 µM and inactive = higher.

Experiments:
Experiment in all cases: growth of human tumour cells (NCI), 48 h
[1] = test system: RXF 631
[2] = test system: UACC-62
[3] = test system: SF-539
[4] = test system: SNB-78
[5] = test system: MOLT-4
[6] = test system: K562
[7] = test system: UO-31
[8] = test system: SK-MEL-5
[9] = test system: DLD-1
[10] = test system: EKVX
[11] = test system: SNB-75
[12] = test system: NCI-H23
[13] = test system: SK-OV-3
[14] = test system: SF-268
[15] = test system: XF498
[16] = test system: KM12
[17] = test system: A549
[18] = test system: Malme-3M
[19] = test system: HOP-62
[20] = test system: SW-620
[21] = test system: IGROV-1
[22] = test system: U-251
[23] = test system: CCRF-CEM
[24] = test system: A498
[25] = test system: 786-0
[26] = test system: HCT-15
[27] = test system: SN12C
[28] = test system: HT-29
[29] = test system: DMS-273
[30] = test system: KM-20L2
[31] = test system: HCC 2998
[32] = test system: SF-295
[33] = test system: CAKI-1
[34] = test system: SK-MEL-2
[35] = test system: DMS-114
[36] = test system: SK-MEL-28
[37] = test system: M19-MEL
[38] = test system: RXF 393
[39] = test system: OVCAR-3
[40] = test system: TK-10
[41] = test system: OVCAR-8
[42] = test system: RPMI-8226
[43] = test system: LXFL 529
[44] = test system: HOP-92
[45] = test system: OVCAR-4
[46] = test system: NCI-H226
[47] = test system: OVCAR-5
[48] = test system: NCI-H460
[49] = test system: M14
[50] = test system: ACHN
[51] = test system: UACC-257
[52] = test system: LOX IMVI
[53] = test system: COLO 205
[54] = test system: HCT-116
[55] = test system: NCI-H522
[56] = test system: SNB-19
[57] = test system: SR

What does the source list for `CC(=O)NC(CCCCNC(=O)N(C)N=O)C(=O)NCc1ccccc1` (configuration not stated)?
GI50 [1]: > 100 µM (inactive); GI50 [2]: > 100 µM (inactive); GI50 [3]: > 100 µM (inactive); GI50 [4]: > 100 µM (inactive); GI50 [5]: > 100 µM (inactive); GI50 [6]: > 100 µM (inactive); GI50 [7]: > 100 µM (inactive); GI50 [8]: > 100 µM (inactive); GI50 [9]: > 100 µM (inactive); GI50 [10]: > 100 µM (inactive); GI50 [11]: 43.4 µM (inactive); GI50 [12]: > 100 µM (inactive); GI50 [13]: > 100 µM (inactive); GI50 [14]: > 100 µM (inactive); GI50 [15]: > 100 µM (inactive); GI50 [16]: > 100 µM (inactive); GI50 [17]: > 100 µM (inactive); GI50 [18]: > 100 µM (inactive); GI50 [19]: > 100 µM (inactive); GI50 [20]: > 100 µM (inactive); GI50 [21]: > 100 µM (inactive); GI50 [22]: > 100 µM (inactive); GI50 [23]: > 100 µM (inactive); GI50 [24]: > 100 µM (inactive); GI50 [25]: > 100 µM (inactive); GI50 [26]: > 100 µM; GI50 [27]: > 100 µM (inactive); GI50 [28]: > 100 µM (inactive); GI50 [29]: > 100 µM (inactive); GI50 [30]: > 100 µM (inactive); GI50 [31]: > 100 µM (inactive); GI50 [32]: > 100 µM (inactive); GI50 [33]: > 100 µM (inactive); GI50 [34]: > 100 µM (inactive); GI50 [35]: > 100 µM (inactive); GI50 [36]: > 100 µM (inactive); GI50 [37]: > 100 µM (inactive); GI50 [38]: > 100 µM (inactive); GI50 [39]: > 100 µM (inactive); GI50 [40]: > 100 µM (inactive); GI50 [41]: > 100 µM (inactive); GI50 [42]: > 100 µM (inactive); GI50 [43]: > 100 µM (inactive); GI50 [44]: > 100 µM (inactive); GI50 [45]: > 100 µM (inactive); GI50 [46]: > 100 µM (inactive); GI50 [47]: > 100 µM (inactive); GI50 [48]: 79.6 µM (inactive); GI50 [49]: > 100 µM (inactive); GI50 [50]: > 100 µM (inactive); GI50 [51]: > 100 µM (inactive); GI50 [52]: > 100 µM (inactive); GI50 [53]: > 100 µM (inactive); GI50 [54]: > 100 µM (inactive); GI50 [55]: > 100 µM (inactive); GI50 [56]: > 100 µM (inactive)

What does the source list for `COc1cc(/C=C\c2ccc(OC(C)=O)cc2)cc(OC)c1OC`?
GI50 [1]: 17.7 µM (inactive); GI50 [2]: 4.85 µM (inactive); GI50 [3]: 2.26 µM (inactive); GI50 [4]: 5.62 µM (inactive); GI50 [57]: 5.04 µM (inactive); GI50 [5]: 3.78 µM (inactive); GI50 [6]: 2.59 µM (inactive); GI50 [7]: 4.08 µM (inactive); GI50 [9]: 3.99 µM (inactive); GI50 [10]: 10 µM (inactive); GI50 [11]: 2.2 µM (inactive); GI50 [12]: 0.352 µM (active); GI50 [13]: > 100 µM (inactive); GI50 [14]: 9.59 µM (inactive); GI50 [15]: 3.39 µM (inactive); GI50 [16]: 2.21 µM (inactive); GI50 [17]: 6.62 µM (inactive); GI50 [18]: 2.06 µM (inactive); GI50 [19]: 5.32 µM (inactive); GI50 [20]: 3.36 µM (inactive); GI50 [21]: 7.59 µM (inactive); GI50 [22]: 2.37 µM (inactive); GI50 [23]: 4.06 µM (inactive); GI50 [24]: 22.4 µM (inactive); GI50 [25]: 3.56 µM (inactive); GI50 [27]: 4.22 µM (inactive); GI50 [28]: 10.8 µM (inactive); GI50 [29]: 0.887 µM (active); GI50 [30]: 25.9 µM (inactive); GI50 [31]: 8.13 µM (inactive); GI50 [33]: 29.1 µM (inactive); GI50 [34]: 4.26 µM (inactive); GI50 [35]: 3.33 µM (inactive); GI50 [36]: 1.44 µM (inactive); GI50 [37]: 6.4 µM (inactive); GI50 [39]: 3.29 µM (inactive); GI50 [41]: 4.03 µM (inactive); GI50 [42]: 0.587 µM (active); GI50 [43]: 6.1 µM (inactive); GI50 [44]: 20 µM (inactive); GI50 [45]: 19.1 µM (inactive); GI50 [46]: 33.7 µM (inactive); GI50 [47]: 62.7 µM (inactive); GI50 [48]: 4.1 µM (inactive); GI50 [49]: 4.49 µM (inactive); GI50 [50]: 6.46 µM (inactive); GI50 [51]: 2.48 µM (inactive); GI50 [53]: 13.3 µM (inactive); GI50 [54]: 4.43 µM (inactive); GI50 [55]: 2.92 µM (inactive); GI50 [56]: 0.668 µM (active)
